What all share (format): cell-based, human
In assay [1] the test system is keratinocytes. Kind of assay: Pemphigus sera-induced keratinocyte apoptosis, TUNEL staining. To be noted: sera pretreated with anti-FasL neutralizing antibody (2.5 mg per ml for 30 min) or Z-IETD-FMK (100 μM for 30 min); FIG. 6. The protocol:
As apoptotic keratinocytes are abundantly expressed in pemphigus, we wanted to explore whether pemphigus sera are capable of inducing apoptosis in normal human keratinocytes. To this purpose, keratinocytes were plated in chamber slides and cultured in serum-free medium (KGM) up to preconfluence. Cells were then cultured in keratinocyte basal medium and treated for 48 h with the addition of 25% serum from either untreated patients or patients treated with systemic corticosteroids. Sera from healthy subjects were used as controls. Apoptosis was evaluated by TUNEL staining in situ. Approximately 100 cells were evaluated, in randomly selected fields, and the percentage of TUNEL-positive cells was counted.
FasL is one of the major triggers of the caspase-8 activated extrinsic apoptotic pathway. Therefore, we wanted to evaluate whether this pathway plays a role in pemphigus apoptosis. To this purpose, patient sera were pretreated with anti-FasL neutralizing antibody or caspase-8 inhibitor, and added to keratinocyte cultures. Keratinocytes were cultured in KGM and treated with pemphigus sera or with sera from untreated patients. Sera were pretreated with anti-FasL neutralizing antibody (2.5 mg per ml for 30 min) or caspase-8 inhibitor Z-IETD-FMK (100 μM for 30 min). Apoptosis was evaluated by TUNEL staining.

In assay [2] the test system is keratinocytes. The assay is described as follows: Pemphigus sera-induced Dsg3 cleavage and caspase-8 activation in confluent keratinocytes, Western blotting. To be noted: pretreatment with Z-IETD-FMK 100 μM for 30 min or NOK2 15 μg/ml, then 72 hrs sera; FIG. 12A. As to the method:
To investigate whether the extrinsic apoptotic pathway is responsible for dsg cleavage, we pretreated confluent keratinocytes with caspase-8 inhibitor Z-IETD-FMK (100 μM for 30 min) or with anti-FasL (NOK2, 15 μg/ml)Ab. Then cells were incubated for 72 hrs with healthy or untreated pemphigus sera. Protein extracts from the culture were analyzed by Western blotting using anti-Dsg3 antibodies and anti-caspase-8 Ab. Vinculin was used as internal control. (FIG. 12A).
Background: A western blot detects proteins with antibodies after separation by electrophoresis.

Assay [3] concerns keratinocytes. The assay is described as follows: Pemphigus sera-induced cell detachment (acantholysis) of keratinocytes. To be noted: pretreatment with Z-IETD-FMK 100 μM for 30 min or NOK2 15 μg/ml, then 72 hrs sera; FIG. 12B.

Peptide text beside a SMILES is read from it. * marks the point of attachment. Cbz = O=C(OCc1ccccc1)*; CH2F = FC*

For the molecule `CC[C@H](C)[C@H](NC(=O)OCc1ccccc1)C(=O)N[C@@H](CCC(=O)OC)C(=O)N[C@H](C(=O)N[C@@H](CC(=O)OC)C(=O)CF)[C@@H](C)O` [Z-IETD-FMK] (Cbz-IE(OMe)TD(OMe)-CH2F), the “pemphigus sera-induced keratinocyte apoptosis (TUNEL staining)” value in the assay with keratinocytes [1] is given as “partially prevented”. In addition, in the assay on keratinocytes [2], the “caspase-8 activation induced by untreated pemphigus sera” value is on record as “prevents” and the “dsg cleavage (Dsg3) induced by untreated pemphigus sera” value is on record as “prevents”. For the same molecule, in the assay on keratinocytes [3], the “cell detachment (i.e. acantholysis) induced by untreated pemphigus sera” value was “prevented”.

The values above are taken from patent US9255150B2, “Remedies for pemphigus containing anti-Fas ligand antibodies” (PINCELL SRL, priority 2008, dated 2016).
